Consider 13 compounds from US20260026504A1, “COMPOUND […] STRUCTURE, APPLICATION, AND INSECTICIDE” (Anhui Shengfeng Biochemical Co., Ltd, priority 2022, published 2026).

For data set [1], the system named is diamondback moth (Plutella xylostella) second instar larvae. Kind of data set: Toxicity to diamondback moth larvae by the leaf-dipping method. It is filed as in vivo. Particulars: for mortality at 0.25 ppm / mortality at 1 ppm: Plutella xylostella, in Brassica oleracea, foliar. The method, then: Determining the toxicity activity of part of compounds on diamondback moth (Plutella xylostella) instar larvae by the leafdipping method.
The test agents of the compounds in Table 2 were weighed out accurately with an electronic analytical balance, and the original drug was dissolved in a 10000 ppm solution with dimethyl sulfoxide as the solvent and then diluted with 0.1% of Triton solution to 1 ppm and 0.25 ppm solutions. Taking the cabbage not contacted with the liquid medicine, and cutting the leaves into 6 cm-diameter circular leaves. Soaking the leaves in the prepared liquid medicine for 15 seconds, taking out and drying, and placing the leaves into 6 cm culture dishes, wherein 1 cabbage leaf is placed in each culture dish. The same standard second instar larvae were placed in petri dishes with 10 heads per dish and 4 replicates per concentration for a total of 40 heads. After inoculation, the culture dish is placed in a constant-temperature culture chamber with the temperature of 25±1° C. and the illumination period of 16 (D) to 8 (L) h, and the number of dead and live larvae is investigated after 48 h and 72 h. A blank and a control of compound K1 and compound K2 were also provided.
The mortality is calculated according to the following formula 1, then the corrected mortality is calculated according to the formula 2, and finally the classification is carried out according to the corrected mortality value and the rating standard shown in the table 2, and the specific results are shown in the tables 3 and 4.
(§1) mortality %=(number of dead insects/total number of insects)×100% Equation 1;
(§2) corrected mortality %=[(treatment-control mortality)/(1-control mortality)]×100% Equation 2.

Data set [2] has as its system rice leaf rollers (Cnaphalocrocis medinalis) fourth instar larvae. Kind of data set: Toxicity to rice leaf roller fourth instar larvae by the leaf-dipping method. It is filed as in vivo. Particulars: for mortality at 5 ppm: Cnaphalocrocis medinalis, foliar, corrected mortality grade, 48 h, rice leaf dip. As for the experimental part: The toxicity activity of part of the compounds on the fourth instar larvae of the rice leaf rollers (Cnaphalocrocis medinalis) is determined by the leafdipping method.
The test agents of the compounds in Table 2 were weighed out accurately with an electronic analytical balance, and the original drug was dissolved completely in dimethylsulfoxide to 10000 ppm solution and then diluted with 0.1% aqueous solution of Triton to 5 ppm solution. And (4) selecting rice plants which are planted in a laboratory and are not contacted with the liquid medicine, and cutting leaves of the rice plants to about 8 cm. Soaking the leaves in the prepared liquid medicine for 15 seconds, taking out and drying, wrapping the roots with absorbent cotton, and putting the wrapped roots into 9 cm culture dishes, wherein 3-5 rice leaves are placed in each culture dish. The water bamboo sections used as the feed for larvae are peeled off gently, and the four-instar larvae of the same standard are placed in culture dishes with 10 heads per dish and 4 repetitions per concentration for a total of 40 heads. After the inoculation, the culture dish is placed in a constant temperature culture room with the temperature of 26±1° C. and the illumination period of 16 (D): 8 (L) h, and the number of dead and live larvae is investigated after 48 h. A blank and a control of compound K1 and compound K2 were also provided.
The mortality was calculated according to the following formula 1, then the corrected mortality was calculated according to the following formula 2, and finally the rating criteria shown in table 2 were combined for ranking according to the corrected mortality value, and the specific results are shown in table 5.
as §1, §2

Setting [3] is: 48 h, corrected mortality grade, cabbage leaf dip.
Setting [4] is: 48 h, corrected mortality grade, 1 ppm, 48 h, cabbage leaf dip, read-out: mortality (1 ppm) 48 h.
The mark [5] stands for this setting: 72 h, corrected mortality grade, 1 ppm, 72 h, cabbage leaf dip, read-out: mortality (1 ppm) 72 h.

Molecules are shown by their SMILES. Like-named read-outs stand apart in the source and are kept apart here. A value given as a limit tells only on which side of the number the result lay.

The compound `Cc1cc(C2=NOC(c3cc(Cl)cc(Cl)c3)(C(F)(F)F)C2)ccc1C(=O)Nc1ccn(C)n1` (centres unmarked) [Compound K1, reference compound] gave a mortality at 0.25 ppm in data set [1] (setting [3]) of less than 50%. The mortality at 1 ppm in data set [1] (setting [4]) and in data set [1] (setting [5]) was less than 50% each time. In data set [2], this compound came in with a mortality at 5 ppm of less than 50%.

As for `Cc1cc(C2=NOC(c3cc(Cl)cc(Cl)c3)(C(F)(F)F)C2)ccc1C(=O)Nc1cnn(C(=O)C2CCC2)c1` (centres unmarked) [Compound 64], the mortality at 1 ppm in data set [1] (setting [5]) lay within 50 to 70%.

`Cc1cc(C2=NOC(c3cc(Cl)c(F)c(Cl)c3)(C(F)(F)F)C2)ccc1C(=O)Nc1cnn(S(=O)(=O)C(C)C)c1` (centres unmarked) [Compound 154]: the mortality at 1 ppm in data set [1] (setting [4]) is 80 to 90%; in data set [1] (setting [5]), 100%.

For `Cc1cc(C2=NOC(c3cc(Cl)c(F)c(Cl)c3)(C(F)(F)F)C2)ccc1C(=O)Nc1cnn(C2CCCCC2)c1` (centres unmarked) [Compound 137], the “mortality (1 ppm) 72 h” value in data set [1] (corrected mortality grade, 1 ppm, 72 h, cabbage leaf dip) is reported as “C (80% to less than 90%)”.

Consider `Cc1cc(C2=NOC(c3cc(Cl)cc(Cl)c3)(C(F)(F)F)C2)ccc1C(=O)Nc1cnn(C2CCOCC2)c1` (centres unmarked) [Compound 40], for which the mortality at 1 ppm in data set [1] (setting [4]) and in data set [1] (setting [5]) was 50 to 70% each time.

Consider `Cc1cc(C2=NOC(c3cc(Cl)c(F)c(Cl)c3)(C(F)(F)F)C2)ccc1C(=O)Nc1c(C)n[nH]c1C` (centres unmarked) [Compound 158], for which the mortality at 1 ppm was 50 to 70% in data set [1] (setting [4]) and 90 to 100% in data set [1] (setting [5]).

`COC(Cn1cc(NC(=O)c2ccc(C3=NOC(c4cc(Cl)cc(Cl)c4)(C(F)(F)F)C3)cc2C)cn1)OC` (centres unmarked) [Compound 36]: in data set [1] (setting [5]), the mortality at 1 ppm is 50 to 70%.

On to `CC(=O)n1cc(NC(=O)c2ccc(C3=NOC(c4cc(Cl)cc(Cl)c4)(C(F)(F)F)C3)cc2C)cn1` (centres unmarked) [Compound 58], for which the mortality at 1 ppm in data set [1] (setting [5]) was 50 to 70%.

For `Cc1cc(C2=NOC(c3cc(Cl)cc(Cl)c3)(C(F)(F)F)C2)ccc1C(=O)Nc1cnn(CC2CC2)c1` (centres unmarked) [Compound 30], the mortality at 1 ppm in data set [1] (setting [5]) fell in the range of 50 to 70%.

On to `CCN(CC)C(=O)n1cc(NC(=O)c2ccc(C3=NOC(c4cc(Cl)cc(Cl)c4)(C(F)(F)F)C3)cc2C)cn1` (centres unmarked) [Compound 68], for which, in data set [1] (setting [5]), the mortality at 1 ppm is 50 to 70%.

Take `Cc1cc(C2=NOC(c3cc(Cl)c(F)c(Cl)c3)(C(F)(F)F)C2)ccc1C(=O)Nc1cnn(C(C)C)c1` (centres unmarked) [Compound 127]: in data set [1] (setting [3]), the mortality at 0.25 ppm came out at 100%. The mortality at 1 ppm in data set [1] (setting [4]) and in data set [1] (setting [5]) was 100% in each case. In addition, in data set [1] (concentration of 0.25 ppm), the “lethality to Plutella xylostella” value is 100%. Also, in data set [2], the mortality at 5 ppm stood at 100%. In addition, in data set [2] (concentration of 5 ppm), the “lethality to Cnaphalocrocis medinalis” value amounted to 100%.

As to `Cc1cc(C2=NOC(c3cc(Cl)cc(Cl)c3)(C(F)(F)F)C2)ccc1C(=O)Nc1cnn(CC(F)F)c1` (centres unmarked) [Compound 8], the mortality at 1 ppm in data set [1] (setting [4]) was in the range of 50 to 70%; in data set [1] (setting [5]), 80 to 90%.

Turning to `Cc1cc(C2=NOC(c3cc(Cl)cc(Cl)c3)(C(F)(F)F)C2)ccc1C(=O)Nc1cnn(C2CC2)c1` (centres unmarked) [Compound 23], the mortality at 1 ppm in data set [1] (setting [4]) and in data set [1] (setting [5]) was 100% in each case.

The term mortality denotes the percentage killed.
